Measured values taken from ChEMBL document CHEMBL1159010, “Constituents of Azadirachta indica: isolation and structure elucidation of a new antibacterial tetranortriterpenoid, mahmoodin, and a new protolimonoid, naheedin” (1992).

Columns and labels:
Assay type in all cases: functional
Conditions in all cases: read-out: IZ
Klebsiella pneumoniae = assay: Antimicrobial activity against Klebsiella pneumoniae at 10 mg
Staphylococcus aureus = assay: Antimicrobial activity against Staphylococcus aureus at 10 mg
Bacillus subtilis = assay: Antimicrobial activity against Bacillus subtilis at 10 mg
Bacillus cereus = assay: Antimicrobial activity against Bacillus cereus at 10 mg
Shigella sonnei = assay: Antimicrobial activity against Shigella sonnei at 10 mg
Salmonella = assay: Antimicrobial activity against Salmonella schotmuelleri at 10 mg
Streptococcus pyogenes = assay: Antimicrobial activity against Streptococcus pyogenes at 10 mg
Enterococcus faecalis = assay: Antimicrobial activity against Streptococcus faecalis at 10 mg
Corynebacterium xerosis = assay: Antimicrobial activity against Corynebacterium xerosis at 10 mg

## CC(=O)O[C@@H]1C[C@H]2C(C)(C)C(=O)C=C[C@]2(C)[C@H]2CC[C@]3(C)C(=CC(=O)O[C@@]3(OCCO)c3ccoc3)[C@@]21C
Klebsiella pneumoniae
  zone of inhibition at 10000 µg/disc: 15 mm
Staphylococcus aureus
  zone of inhibition at 10000 µg/disc: 17 mm
Bacillus subtilis
  zone of inhibition at 10000 µg/disc: 20 mm
Bacillus cereus
  zone of inhibition at 10000 µg/disc: 18 mm
Shigella sonnei
  zone of inhibition at 10000 µg/disc: 16 mm
Salmonella
  zone of inhibition at 10000 µg/disc: 20 mm
Streptococcus pyogenes
  zone of inhibition at 10000 µg/disc: 28 mm
Enterococcus faecalis
  zone of inhibition at 10000 µg/disc: 22 mm
Corynebacterium xerosis
  zone of inhibition at 10000 µg/disc: 17 mm
